Where two headings read alike, the source gives them in different places.
Legend:
[1] = target: T1, CCR2 (Homo sapiens, UniProt P41597); experiment: MCP-1 Receptor Binding Assay in THP-1 Cells; details: for IC50: THP-1 cells, 0.5 nM 125I labeled MCP-1, 2 hours at 30° C., read-out: Inhibition of MCP-1 Binding IC50; for inhibition at 25 µM: test concentration of 25 μM, given where an IC50 value was not obtained, read-out: Inhibition of MCP-1 Binding, percent inhibition
T1 construct: host or cells: THP-1 cells
T1 sequence (P41597 1-360 isoform P41597-2): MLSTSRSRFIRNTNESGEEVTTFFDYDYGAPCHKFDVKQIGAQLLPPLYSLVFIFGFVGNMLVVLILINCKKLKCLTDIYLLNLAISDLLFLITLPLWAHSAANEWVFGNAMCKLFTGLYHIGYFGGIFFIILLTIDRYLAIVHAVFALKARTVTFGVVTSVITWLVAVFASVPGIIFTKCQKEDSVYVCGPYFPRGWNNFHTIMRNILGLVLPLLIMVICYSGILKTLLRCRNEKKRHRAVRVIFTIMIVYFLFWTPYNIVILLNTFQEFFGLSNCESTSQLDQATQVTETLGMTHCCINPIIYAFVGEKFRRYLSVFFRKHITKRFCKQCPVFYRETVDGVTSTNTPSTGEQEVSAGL
Protocol: THP-1 cells were obtained from American Type Culture Collection (Manassas, Va., USA). The THP-1 cells were grown in RPMI-1640 supplemented with 10% fetal bovine serum in a humidified 5% CO2 atmosphere at 37° C. The cell density was maintained […].
THP-1 cells were incubated with 0.5 nM ^125, labeled MCP-1 (Perkin-Elmer Life Sciences, Inc. Boston, Mass.) in the presence of varying concentrations of either unlabeled MCP-1 (R & D Systems, Minneapolis, Minn.) or test compound for 2 hours at 30° C. in a 96 well plate. Cells were then harvested onto a filter plate, dried, and 20 μL of Microscint 20 was added to each well. Plates were counted in a TopCount NXT, Microplate Scintillation & Luminescence Counter (Perkin-Elmer Life Sciences, Inc. Boston, Mass.). Blank values (buffer only) were subtracted from all values and drug treated values were compared to vehicle treated values. 1 μM cold MCP-1 was used for nonspecific binding.
Table 1 lists IC50 values for inhibition of MCP-1 binding to CCR2 obtained for test compounds of the invention.

[2] = system: MCP-1 induced calcium ion influx in THP-1 cells; experiment: MCP-1 Induced Calcium Mobilization in THP-1 Cells; type: cell-based; details: for IC50: 0.2 μM MCP-1, FLIPR, read-out: Inhibition of MCP-1 Induced Calcium Ion Influx IC50; for inhibition at 25 µM: THP-1, test concentration of 25 μM, given where an IC50 value was not obtained, read-out: Inhibition of MCP-1 Induced Calcium Ion Influx, percent inhibition
Protocol: THP-1 cells were plated at a density of 8×10^5 cells/mL (100 μL/well) into poly-D lysine coated clear bottom, black 96 well plates. The cells were loaded with 5 μM fluo-3 for 45 minutes. The fluo-3 washed off and cells were incubated with varying concentrations of test compound for 15 minutes. The change in calcium ion concentration upon addition of 0.2 μM MCP-1 was determined using FLIPR and compared to vehicle.
Table 2 lists IC50 values for inhibition of MCP-1 induced influx of calcium ions.

[3] = Homo sapiens, THP-1, THP-1 cells

Compound | IC50 [1] [nM] | IC50 ([2]; THP-1 cells) [nM] | IC50 [2, 3] [nM] | inhibition at 25 µM ([2]; Homo sapiens) [%] | inhibition at 25 µM [1] [%]
4-hydroxy-4-{1-hydroxy-2-hydroxy-2-[4-(1H-indol-3-yl)-piperidin-1-yl]-ethyl}-piperidine-1-carboxylic acid (3,5-difluoro-phenyl)-amide [Compound 81] | 2600 | 1800 |  |  | 
COc1ccc(C2CCN(CC(CO)C3CCN(C(=O)/C=C/c4cccc(C)c4)CC3)CC2)cc1 (stereo not shown) [Compound 42] | 2200 |  | 3700 |  | 
COc1ccc(C2CCN(CC(CO)C3CCN(C(=O)Nc4ccc(Cl)c(Cl)c4)CC3)CC2)cc1 (stereo not shown) [Compound 44, 4-{1-hydroxymethyl-2-[4-(4-methoxy-phenyl)-piperidin-1-yl]-ethyl}-piperidine-1-carboxylic acid (3,4-dichloro-phenyl)-amide] | 1800 |  | 720 |  | 
O=C(Nc1ccc(Cl)c(Cl)c1)N1CCC(CC(CO)N2CCC(c3c[nH]c4ccccc34)CC2)CC1 (stereo not shown) [Compound 58, 4-{3-hydroxy-2-[4-(1H-indol-3-yl)-piperidin-1-yl]-propyl}-piperidine-1-carboxylic acid (3,4-dichloro-phenyl)-amide] | 5000 |  |  | 42 | 
COc1ccc(C2CCN(CC(NC(C)=O)C3CCN(C(=O)C=Cc4cc(F)c(F)c(F)c4)CC3)CC2)cc1 (stereo not shown) [Compound 66, N-(2-[4-(4-methoxy-phenyl)-piperidin-1-yl]-1-{1-[3-(3,4,5-trifluoro-phenyl)-acryloyl]-piperidin-4-yl}-ethyl)-acetamide] | 420 |  | 1100 |  | 
O=C(/C=C/c1cc(F)cc(F)c1)N1CCC(O)(C(O)CN2CCC(c3c[nH]c4ccccc34)CC2)CC1 (stereo not shown) [Compound 71] | 40 |  | 200 |  | 
O=C(/C=C/c1cccc(F)c1)N1CCC(O)(C(O)CN2CCC(c3c[nH]c4ccccc34)CC2)CC1 (stereo not shown) [Compound 76] | 470 |  | 165 |  | 
O=C(/C=C/c1cccc(C(F)(F)F)c1)N1CCC(O)(C(O)CN2CCC(c3c[nH]c4ccccc34)CC2)CC1 (stereo not shown) [Compound 77] | 500 |  | 85 |  | 
O=C(/C=C/c1ccsc1)N1CCC(O)(C(O)CN2CCC(c3c[nH]c4ccccc34)CC2)CC1 (stereo not shown) [Compound 79] | 810 |  | 7400 |  | 
O=C(Nc1ccc(F)c(F)c1)N1CCC(O)(C(O)CN2CCC(c3c[nH]c4ccccc34)CC2)CC1 (stereo not shown) [Compound 82, 4-hydroxy-4-{1-hydroxy-2-[4-(1H-indol-3-yl)-piperidin-1-yl]-ethyl}-piperidine-1-carboxylic acid (3,4-difluoro-phenyl)-amide] | 1300 |  | 2600 |  | 
OC(CN1CCC(c2c[nH]c3ccccc23)CC1)C1(O)CCN(C(=S)Nc2ccc(Cl)c(Cl)c2)CC1 (stereo not shown) [Compound 84, 4-hydroxy-4-{1-hydroxy-2-[4-(1H-indol-3-yl)-piperidin-1-yl]-ethyl}-piperidine-1-carbothioic acid (3,4-dichloro-phenyl)-amide] | 550 |  | 30 |  | 
O=C(/C=C/c1cc(F)c(F)c(F)c1)N1CCC(O)(C(O)CN2CCC(c3nc4ccccc4[nH]3)CC2)CC1 (stereo not shown) [Compound 87] | 470 |  | 3300 |  | 
COc1ccc(C2CCN(CC(O)C3CCN(C(=S)Nc4cc(Cl)cc(Cl)c4)CC3)CC2)cc1 (stereo not shown) [Compound 89, 4-{1-hydroxy-2-[4-(4-methoxy-phenyl)-piperidin-1-yl]-ethyl}-piperidine-1-carbothioic acid (3,5-dichloro-phenyl)-amide] | 550 |  | 1800 |  | 
COc1ccc(C2CCN(CC(O)C3(O)CCN(C(=O)/C=C/c4cccc(C)c4)CC3)CC2)cc1 (stereo not shown) [Compound 95] | 1400 |  |  | 53 | 
COc1ccc(C2CCN(CC(O)C3CCN(C(=S)Nc4cccc(OC)c4)CC3)CC2)cc1 (stereo not shown) [Compound 96, 4-{1-hydroxy-2-[4-(4-methoxy-phenyl)-piperidin-1-yl]-ethyl}-piperidine-1-carbothioic acid (3-methoxy-phenyl)-amide] |  | 13100 |  |  | 
COc1ccc(C2CCN(CC(O)C3CCN(C(=S)Nc4cccc(C(F)(F)F)c4)CC3)CC2)cc1 (stereo not shown) [Compound 97, 4-{1-hydroxy-2-[4-(4-methoxy-phenyl)-piperidin-1-yl]-ethyl}-piperidine-1-carbothioic acid (3-trifluoromethyl-phenyl)-amide] |  | 12900 |  |  | 
COc1ccc(C2CCN(CC(O)C3CCN(C(=S)Nc4ccc(Cl)c(Cl)c4)CC3)CC2)cc1 (stereo not shown) [Compound 98, 4-{1-hydroxy-2-[4-(4-methoxy-phenyl)-piperidin-1-yl]-ethyl}-piperidine-1-carbothioic acid (3,4-dichloro-phenyl)-amide] |  |  | 800 |  | 
COc1ccc(C2CCN(CC(O)C3CCN(C(=S)Nc4ccc(Br)c(F)c4)CC3)CC2)cc1 (stereo not shown) [Compound 99, 4-{1-hydroxy-2-[4-(4-methoxy-phenyl)-piperidin-1-yl]-ethyl}-piperidine-1-carbothioic acid (4-bromo-3-fluoro-phenyl)-amide] |  |  | 3500 |  | 
COc1ccc(C2CCN(CC(O)C3CCN(C(=S)Nc4cccc(Cl)c4)CC3)CC2)cc1 (stereo not shown) [Compound 102, 4-{1-hydroxy-2-[4-(4-methoxy-phenyl)-piperidin-1-yl]-ethyl}-piperidine-1-carbothioic acid (3-chloro-phenyl)-amide] | 480 |  | 2500 |  | 
COc1ccc(C2CCN(CC(O)C3CCN(C(=S)Nc4cccc(OC)c4)CC3)CC2)cc1 (stereo not shown) [Compound 103, 4-{1-hydroxy-2-[4-(4-methoxy-phenyl)-piperidin-1-yl]-ethyl}-piperidine-1-carbothioic acid (3-methoxy-phenyl)-amide] | 500 | 2200 |  |  | 
COc1ccc(C2CCN(CC(O)C3CCN(C(=S)Nc4cccc(C(F)(F)F)c4)CC3)CC2)cc1 (stereo not shown) [Compound 105, 4-{1-hydroxy-2-[4-(4-methoxy-phenyl)-piperidin-1-yl]-ethyl}-piperidine-1-carbothioic acid (3-trifluoromethyl-phenyl)-amide] | 540 | 3400 |  |  | 
COc1ccc(C2CCN(CC(O)C3CCN(C(=S)Nc4ccc(C(F)(F)F)cc4)CC3)CC2)cc1 (stereo not shown) [Compound 106, 4-{1-hydroxy-2-[4-(4-methoxy-phenyl)-piperidin-1-yl]-ethyl}-piperidine-1-carbothioic acid (4-trifluoromethyl-phenyl)-amide] | 760 |  | 2600 |  | 
COc1ccc(C2CCN(CC(O)C3CCN(C(=S)Nc4ccc(Cl)c(Cl)c4)CC3)CC2)cc1 (stereo not shown) [Compound 108, 4-{1-hydroxy-2-[4-(4-methoxy-phenyl)-piperidin-1-yl]-ethyl}-piperidine-1-carbothioic acid (3,4-dichloro-phenyl)-amide] | 210 | 480 |  |  | 
COc1ccc(C2CCN(CC(O)C3(O)CCN(C(=O)/C=C/c4ccsc4)CC3)CC2)cc1 (stereo not shown) [Compound 113] | 1600 |  | 4900 |  | 
OC(CN1CCC(c2c[nH]c3ccc(N4CCOCC4)cc23)CC1)C1(O)CCN(C(=S)Nc2cc(F)cc(F)c2)CC1 (stereo not shown) [Compound 183, 4-hydroxy-4-{1-hydroxy-2-[4-(5-morpholin-4-yl-1H-indol-3-yl)-piperidin-1-yl]-ethyl}-piperidine-1-carbothioic acid (3,5-difluoro-phenyl)-amide] |  |  |  |  | 47
CC(=O)Nc1ccc2[nH]cc(C3CCN(CC(O)C4CCNCC4)CC3)c2c1 (stereo not shown) [Compound 185, N-{3-[1-(2-hydroxy-2-piperidin-4-yl-ethyl)-piperidin-4-yl]-1H-indol-5-yl}-acetamide] |  |  |  |  | 54

— patent publication US20070197590A1, “SUBSTITUTED DIPIPERIDINE CCR2 ANTAGONISTS” (priority 2006, published 2007)
